From publication PMC5312080 (mBio, 2017)
In brackets after ≈: the same amount, converted by molar mass. Several values for one entry are separate records, joined by “and”; a condition that tells them apart may be missing. Identical values can stand only once. Like-named read-outs stand apart in the source and are kept apart here.

What was measured:
[1] = system: M. tuberculosis H37Rv; assay: Microdilution alamarBlue assay (MABA) MIC; format: cell-based; details: Mycobacterium tuberculosis
[2] = in vitro; details: African green monkey
[3] = system: M. tuberculosis H37Rv; assay: Checkerboard alamarBlue compound interaction assay; format: cell-based, Mycobacterium tuberculosis; details: for MIC: Mycobacterium tuberculosis, H37RV, drug alone, checkerboard; for FIC category / FIC index (∑FIC): combination of the named drug with DG70
[4] = system: M. bovis BCG; assay: microbe, parasite or virus in culture; format: cell-based; details: Mycobacterium tuberculosis variant bovis BCG
[5] = system: BCG::pMV306PHsp60 strains overexpressing menG; format: cell-based, Mycobacterium bovis BCG
[6] = system: M. fortuitum; assay: MABA MIC; format: cell-based, Mycobacterium fortuitum; details: Mycolicibacterium fortuitum
[7] = system: M. abcessus; assay: MABA MIC; format: cell-based, Mycobacterium abscessus; details: Mycobacteroides abscessus
[8] = system: M. smegmatis; assay: MABA MIC; format: cell-based, Mycobacterium smegmatis; details: Mycolicibacterium smegmatis
[9] = system: M. marinum; assay: MABA MIC; format: cell-based; details: Mycobacterium marinum
[10] = system: M. avium; assay: MABA MIC; format: cell-based, Mycobacterium avium subsp. avium; details: Mycobacterium avium
[11] = system: A. baumanii; assay: MABA MIC; format: cell-based; details: Acinetobacter baumannii
[12] = system: E. cloacae; assay: MABA MIC; format: cell-based; details: Enterobacter cloacae
[13] = system: E. faecium; assay: MABA MIC; format: cell-based; details: Enterococcus faecium
[14] = system: Klebsiella pneumoniae; assay: MABA MIC; format: cell-based
[15] = system: Pseudomonas aeruginosa; assay: MABA MIC; format: cell-based
[16] = system: S. aureus MRSA; assay: MABA MIC; format: cell-based; details: Staphylococcus aureus
[17] = system: S. epidemis 14490; assay: MABA MIC; format: cell-based; details: Staphylococcus epidermidis
[18] = system: Bacillus cereus; assay: MABA MIC; format: cell-based
[19] = system: Burkholderia cepacia; assay: MABA MIC; format: cell-based
[20] = system: Yersinia pseudotuberculosis; assay: microbe, parasite or virus in culture; format: cell-based
[21] = system: Brucella neotomae; assay: microbe, parasite or virus in culture; format: cell-based
[22] = system: Francisella philomiragia; assay: microbe, parasite or virus in culture; format: cell-based
[23] = system: Legionella pneumophila; assay: microbe, parasite or virus in culture; format: cell-based
[24] = system: nontuberculous mycobacteria (NTM); assay: organism not typed; format: cell-based
[25] = system: PcydAB promoter (cydAB operon) reporter; format: cell-based, Mycobacterium bovis BCG
[26] = system: M. tuberculosis mc^26206 in J774A.1 murine macrophages; format: cell-based; details: J774A.1 macrophages, 3 days, concentrations equivalent to in vitro MIC
[27] = system: BCG overexpressing menG_F118L; format: cell-based; details: 20 µg/ml of DG70, 7 days, CFU
[28] = system: menaquinone biosynthesis (MenG); format: cell-based, Mycobacterium bovis BCG
[29] = system: mycobacterial oxygen consumption; assay: Oxygen consumption, methylene blue decolorization; format: cell-based
[30] = system: ATP synthesis in BCG; format: cell-based, Mycobacterium bovis BCG
[31] = system: nonreplicating M. tuberculosis; format: cell-based, Mycobacterium tuberculosis; details: for reduction of CFU: 7 days, M. tuberculosis starved 6 weeks in PBS
[32] = system: BCG; format: cell-based, Mycobacterium bovis BCG
[33] = in vitro; details: mouse, microsomes
[34] = system: menaquinone biosynthesis (MenG); format: cell-based, Mycobacterium bovis BCG; remark: listed apart in the source
[35] = Table S2, parent H37Rv, read-out: MIC in Mtb H37Rv
[36] = whole-cell activity versus M. tuberculosis, […], read-out: MIC
[37] = FIC of the anti-TB drug in combination with DG70
[38] = anti-TB drug in combination with DG70

SMILES: COc1ccc(-c2cc(NC(=O)c3ccccc3Cl)ccc2OC)cc1 [JSF-2908]
- MIC [1, 35]: 4.8 µg/mL (≈ 13 µM)
- MIC [1, 36]: 4.8 µg/mL (≈ 13 µM)
- CC50 [2]: 50 µg/mL (≈ 136 µM)

SMILES: COc1ccc(-c2cc(NC(=O)c3ccccc3)ccc2OC)cc1 [JSF-2912]
- MIC [1, 35]: 9.6 µg/mL (≈ 28.8 µM)
- MIC [1, 36]: 9.6 µg/mL (≈ 28.8 µM)
- CC50 [2]: > 80 µg/mL

SMILES: CO[C@H]1/C=C/O[C@@]2(C)Oc3c(C)c(O)c4c(O)c(c(/C=N/N5CCN(C)CC5)c(O)c4c3C2=O)NC(=O)/C(C)=C\C=C\[C@H](C)[C@H](O)[C@@H](C)[C@@H](O)[C@@H](C)[C@H](OC(C)=O)[C@@H]1C [RIF, rifampin]
- FIC [3, 37]: 0.25
- MIC [3]: 0.02 µM
- MIC In combination [3, 38]: 0.005 µM
- FIC category [3]: synergistic (≤0.5, synergistic)
- FIC index (∑FIC) [3]: 0.5

SMILES: COc1ccc(-c2cc(NCc3ccc(F)cc3Cl)ccc2OC)cc1 [JSF-2951]
- MIC [1, 35]: 77 µg/mL (≈ 207 µM)
- MIC [1, 36]: 77 µg/mL (≈ 207 µM)
- CC50 [2]: > 50 µg/mL

SMILES: COc1ccc(-c2cc(N(C)C(=O)c3ccc(F)cc3Cl)ccc2OC)cc1 [JSF-2949]
- MIC [1, 35]: 39.5 µg/mL (≈ 98.8 µM)
- MIC [1, 36]: 39 µg/mL (≈ 97.5 µM)
- CC50 [2]: 24 µg/mL (≈ 60 µM)

SMILES: COc1ccc(NC(=O)c2ccc(F)cc2Cl)cc1 [JSF-2926]
- MIC [1, 35]: 9.6 µg/mL (≈ 34.3 µM)
- MIC [1, 36]: 9.6 µg/mL (≈ 34.3 µM)
- CC50 [2]: > 70 µg/mL

SMILES: O=C(Nc1cccc(-c2ccccc2)c1)c1ccc(F)cc1Cl [JSF-2910]
- MIC [1, 35]: 9.6 µg/mL (≈ 29.5 µM)
- MIC [1, 36]: 9.6 µg/mL (≈ 29.5 µM)
- CC50 [2]: > 50 µg/mL

SMILES: COc1ccc(-c2cc(NC(=O)c3ccc(F)cc3Cl)ccc2OC)cc1 [DG70, 2-chloro-N-(4',6-dimethoxy-[1,1'-biphenyl]-3-yl)-4-fluorobenzamide]
- MIC90 ([1]; H37Rv + 400 µM MK4, read-out: MIC90): 9.6 µg/mL
- MIC90 ([1]; H37Rv, lab strain, […], read-out: MIC90): 4.8 µg/mL (≈ 12.4 µM)
- MIC ([1]; M. tuberculosis (Table S1), read-out: MIC): 4.8 µg/mL (≈ 12.4 µM)
- MIC [1, 35]: 2.4 µg/mL (≈ 6.22 µM)
- MIC [1, 36]: 2.4 µg/mL (≈ 6.22 µM)
- MIC [4]: 2.4 µg/mL (≈ 6.22 µM)
- increase of DG70 MIC on overexpression of menG [5]: 4 ×
- MIC [6]: > 40 µg/mL
- MIC [7]: > 40 µg/mL
- MIC [8]: > 40 µg/mL
- MIC [9]: > 40 µg/mL
- MIC [10]: > 40 µg/mL
- MIC [11]: > 20 µg/mL
- MIC [12]: > 20 µg/mL
- MIC [13]: > 20 µg/mL
- MIC [14]: > 20 µg/mL
- MIC [15]: > 20 µg/mL
- MIC [16]: > 20 µg/mL
- MIC [17]: > 20 µg/mL
- MIC [18]: > 40 µg/mL
- MIC [19]: > 40 µg/mL
- MIC [20]: > 40 µg/mL
- MIC [21]: > 40 µg/mL
- MIC [22]: > 40 µg/mL
- MIC [23]: > 40 µg/mL
- MIC [24]: > 100 µM
- activity against NTM and other bacteria [24]: lacked activity
- peak PcydAB induction [25]: 3.1 fold
- intracellular M. tuberculosis growth in macrophages [26]: inhibited intracellular M. tuberculosis growth
- growth inhibition of strain overexpressing menG_F118L [27]: completely resistant
- [14C]methyl incorporation into menaquinone [28]: complete suppression
- oxygen consumption (methylene blue decolorization at 665 nm) [29]: strongly prevented decolorization of methylene blue
- effect of MK4 supplementation on inhibition of oxygen consumption ([29]; 400 µM MK4): rescued
- effect of MK4 supplementation on inhibition of ATP synthesis [30]: rescued
- intracellular ATP levels [30]: significant decrease in ATP levels
- effect of MK4 on killing of nutrient-deprived M. tuberculosis ([31]; 400 µM MK4): reversed
- reduction of CFU ([31]; 5× MIC): 4 log10
- reduction of CFU ([31]; 10× MIC): 6.5 log10
- MIC In combination ([3]; DG70 in combination with BDQ): 1.5 µM
- MIC In combination ([3]; DG70 in combination with EMB): 1.5 µM
- MIC In combination ([3]; DG70 in combination with INH): 3.12 µM
- MIC In combination ([3]; DG70 in combination with PA824): 0.35 µM
- MIC In combination ([3]; DG70 in combination with RIF): 3.1 µM
- MIC In combination ([3]; DG70 in combination with THZ): 3.12 µM
- FIC ([3]; FIC of DG70 in combination with BDQ): 0.1
- FIC ([3]; FIC of DG70 in combination with EMB): 0.12
- FIC ([3]; FIC of DG70 in combination with INH): 0.2
- FIC ([3]; FIC of DG70 in combination with PA824): 0.03
- FIC ([3]; FIC of DG70 in combination with RIF): 0.25
- FIC ([3]; FIC of DG70 in combination with THZ): 0.2
- MIC [3]: 12.5 µM
- effect of MK4 pretreatment on bactericidal activity [32]: could be reversed
- killing (drop in CFU) over 21 days [32]: 5 log10
- killing in 4 days [32]: less than 1 log10
- reduction of cultures after 2 days of treatment [32]: ≤ 1 log10
- CC50 ([2]; 50% cytotoxic concentration (CC50), Vero cells): > 77 µg/mL
- CC50 ([2]; CC50, Vero cells, 48 h, MTT): > 80 µg/mL
- microsomal CLint [33]: 921 µL/min/mg

SMILES: COc1ccc(NC(=O)c2ccc(F)cc2Cl)cc1-c1ccccc1 [JSF-2971]
- MIC [1, 35]: 9.6 µg/mL (≈ 27 µM)
- MIC [1, 36]: 9.6 µg/mL (≈ 27 µM)
- CC50 [2]: > 50 µg/mL

SMILES: COc1nc2ccc(Br)cc2cc1[C@@H](c1ccccc1)[C@@](O)(CCN(C)C)c1cccc2ccccc12 [BDQ, bedaquiline]
- [14C]methyl incorporation into menaquinone [28]: no such effect
- effect of MK4 supplementation on inhibition of oxygen consumption ([29]; 400 µM MK4): failed to reverse
- effect of MK4 supplementation on inhibition of ATP synthesis [30]: failed to reverse
- FIC [3, 37]: 0.4
- MIC [3]: 0.39 µM
- MIC In combination [3, 38]: 0.16 µM
- FIC category [3]: synergistic (≤0.5, synergistic)
- FIC index (∑FIC) [3]: 0.5
- killing (drop in CFU) over 21 days [32]: 5 log10
- killing in 4 days [32]: less than 1 log10
- time of treatment to sterile cultures (no CFU detected) [32]: 21 days

SMILES: NNC(=O)c1ccncc1 [INH, isoniazid]
- MIC90 [1]: 0.05 µg/mL (≈ 0.365 µM)
- MIC90 [4]: 0.05 µg/mL (≈ 0.365 µM)
- [14C]methyl incorporation into menaquinone [28]: no such effect
- MK9/DMK9 [34]: 3.8 and 2.9
- oxygen consumption (methylene blue decolorization at 665 nm) [29]: clearly decolorized methylene blue
- day by which cultures were completely sterilized [31]: ≤ 10 days
- FIC [3, 37]: 0.2
- MIC [3]: 0.39 µM
- MIC In combination [3, 38]: 0.09 µM
- FIC category [3]: synergistic (≤0.5, synergistic)
- FIC index (∑FIC) [3]: 0.4
- regrowth after [32]: 7 days
- time of treatment to sterile cultures (no CFU detected) [32]: 10 days

SMILES: CC[C@@H](CO)NCCN[C@@H](CC)CO [EMB, ethambutol]
- FIC [3, 37]: 0.5
- MIC [3]: 6.25 µM
- MIC In combination [3, 38]: 3.12 µM
- FIC category [3]: additive (>0.5 to ≤1, additive)
- FIC index (∑FIC) [3]: 0.6

SMILES: COc1ccc(-c2cc(NC(=O)c3ccc(F)cc3)ccc2OC)cc1 [JSF-2909]
- MIC [1, 35]: > 77 µg/mL
- MIC [1, 36]: > 77 µg/mL
- CC50 [2]: > 50 µg/mL

SMILES: O=C(Nc1ccc(O)c(-c2ccc(O)cc2)c1)c1ccc(F)cc1Cl [JSF-2950]
- MIC [1, 35]: 39.5 µg/mL (≈ 110 µM)
- MIC [1, 36]: 39 µg/mL (≈ 109 µM)
- CC50 [2]: 50 µg/mL (≈ 140 µM)

SMILES: COc1ccc(-c2cccc(NC(=O)c3ccc(F)cc3Cl)c2)cc1 [JSF-2907]
- MIC [1, 35]: > 77 µg/mL
- MIC [1, 36]: > 77 µg/mL
- CC50 [2]: 50 µg/mL (≈ 141 µM)

SMILES: CSc1ccc2c(c1)N(CCC1CCCCN1C)c1ccccc1S2 (stereo not shown) [THZ, thioridazine]
- effect of MK4 supplementation on inhibition of oxygen consumption [29]: failed to reverse
- effect of MK4 supplementation on inhibition of ATP synthesis [30]: failed to reverse
- FIC [3, 37]: 0.5
- MIC [3]: 6.25 µM
- MIC In combination [3, 38]: 3.12 µM
- FIC category [3]: additive (>0.5 to ≤1, additive)
- FIC index (∑FIC) [3]: 0.7

SMILES: O=[N+]([O-])c1cn2c(n1)OC[C@@H](OCc1ccc(OC(F)(F)F)cc1)C2 [PA824]
- FIC [3, 37]: 1.0
- MIC [3]: 0.1 µM
- MIC In combination [3, 38]: 0.1 µM
- FIC category [3]: additive (>0.5 to ≤1, additive)
- FIC index (∑FIC) [3]: 1.0
- regrowth after [32]: 10 days
- time of treatment to sterile cultures (no CFU detected) [32]: 10 days
